The assay relates to pathogenic bacteria. Put plainly: MIC by microdilution broth method (NCCLS M7-A4), in vitro antibacterial activity. It is filed as cell-based. The gist of the method:
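MIC read after 35 °C incubation for 16–20 h relative to drug-free growth wells. Cation-adjusted Mueller-Hinton broth with two-fold compound dilutions, organisms at roughly 5×10^4 CFU/well final. Method follows NCCLS document M7-A4.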
In general terms: Dilution methods test growth across graded concentrations, often in twofold steps.

The mark [1] stands for this setting: Staphylococcus aureus, Organism A: Staphylococcus aureus OC4172, read-out: MIC.
Setting [2] is: Streptococcus pneumoniae, ATCC49619, Organism E: Streptococcus pneumoniae ATCC 49619, read-out: MIC.
[3] abbreviates: Streptococcus pneumoniae, Organism B: fluoroquinolone-resistant clinical isolate of Streptococcus pneumoniae (QRDR amino acid substitutions).
Where [4] appears, read: Streptococcus pneumoniae, Organism C: fluoroquinolone-resistant clinical isolate of Streptococcus pneumoniae (QRDR amino acid substitutions).
The mark [5] stands for this setting: Streptococcus pneumoniae, Organism D: fluoroquinolone-resistant clinical isolate of Streptococcus pneumoniae (QRDR amino acid substitutions).

Converted amounts (≈) assume the structure as drawn. Counter-ions that a name gives are not always drawn. Like-named read-outs stand apart in the source and are kept apart here.

In general, MIC refers to the smallest concentration in the dilution series that meets the test's criterion for growth inhibition. Turning to `NC/C(F)=C1\CCCN(c2cc3c(cc2F)c(=O)c(C(=O)O)cn3C2CC2)C1` [Compound 382, (Z)-7-[3-(2-Amino-1-fluoro-ethylidene)-piperidin-1-yl]-1-cyclopropyl-6-fluoro-4-oxo-1,4-dihydro-quinoline-3-carboxylic acid], the MIC reads like this: under setting [1], 0.5 µg/mL (≈ 1.28 µM); under setting [2], 2 µg/mL (≈ 5.14 µM); under setting [3], 8 µg/mL (≈ 20.5 µM); under setting [4], more than 16 µg/mL; under setting [5], 16 µg/mL (≈ 41.1 µM).

Regarding `C[C@H]1COc2c(N3CCOC/C(=C(/F)CN)C3)c(F)cc3c(=O)c(C(=O)O)cn1c23` [Compound 494, 9-[(E)-6-(2-Amino-1-fluoro-ethylidene)-[1,4]oxazepan-4-yl]-8-fluoro-(3S)-3-methyl-6-oxo-2,3-dihydro-6H-1-oxa-3a-aza-phenalene-5-carboxylic Acid], the MIC is 1 µg/mL (≈ 2.37 µM) under setting [1], 8 µg/mL (≈ 19 µM) under setting [2], more than 16 µg/mL under setting [4] and more than 16 µg/mL under setting [5].

Take `NC/C(F)=C1/CCCN(c2c(F)cc3c(=O)c(C(=O)O)cn(-c4nc(N)c(F)cc4F)c3c2Cl)C1` [Compound 358, (E)-1-(6-Amino-3,5-difluoro-pyridin-2-yl)-7-[3-(2-amino-1-fluoro-ethylidene)-piperidin-1-yl]-8-chloro-6-fluoro-4-oxo-1,4-dihydro-quinoline-3-carboxylic Acid Trifluoroacetate]: the MIC runs as follows: (Staphylococcus aureus, Organism A: Staphylococcus aureus OC4172) 0.12 µg/mL; (Streptococcus pneumoniae, ATCC49619, Organism E: Streptococcus pneumoniae ATCC 49619) 0.5 µg/mL; under setting [3], 16 µg/mL; under setting [4], 8 µg/mL; under setting [5], 16 µg/mL.

As to `CC(CN)=C1CCN(c2c(F)cc3c(=O)c(C(=O)O)cn4c3c2OCC4C)CC1` (stereo not shown) [Compound 9, 9-[4-(2-Amino-1-methyl-ethylidene)-piperidin-1-yl]-8-fluoro-3-methyl-6-oxo-2,3-dihydro-6H-1-oxa-3a-aza-phenalene-5-carboxylic acid], the MIC is, setting by setting: under setting [1], 0.5 µg/mL (≈ 1.25 µM); under setting [2], 1 µg/mL (≈ 2.49 µM); under setting [3], 4 µg/mL (≈ 9.96 µM); under setting [4], more than 16 µg/mL; under setting [5], more than 16 µg/mL.

For the compound `Nc1nc(-n2cc(C(=O)O)c(=O)c3cc(F)c(N4CCC/C(=C(/Cl)CO)C4)c(Cl)c32)c(F)cc1F` [Compound 416, (Z)-1-(6-Amino-3,5-difluoro-pyridin-2-yl)-8-chloro-7-[3-(1-chloro-2-hydroxy-ethylidene)-piperidin-1-yl]-6-fluoro-4-oxo-1,4-dihydro-quinoline-3-carboxylic acid], the MIC was 0.06 µg/mL (≈ 0.113 µM) under setting [1]; 1 µg/mL (≈ 1.89 µM) under setting [2]; 16 µg/mL (≈ 30.2 µM) under setting [3]; more than 16 µg/mL under setting [4]; 16 µg/mL (≈ 30.2 µM) under setting [5].

In the case of `CC(CN)=C1CN(c2cc3c(c(C)c2F)c(=O)c(C(=O)O)cn3C2CC2)C1` [Compound 367, 7-[3-(2-Amino-1-methyl-ethylidene)-azetidin-1-yl]-1-cyclopropyl-6-fluoro-5-methyl-4-oxo-1,4-dihydro-quinoline-3-carboxylic Acid], the MIC is not above 0.015 µg/mL under setting [1]; 0.12 µg/mL (≈ 0.323 µM) under setting [2]; 0.25 µg/mL (≈ 0.673 µM) under setting [3]; 1 µg/mL (≈ 2.69 µM) under setting [4]; 1 µg/mL (≈ 2.69 µM) under setting [5].

In the case of `CN(CC(F)=C1CCN(c2c(F)cc3c(=O)c(C(=O)O)cn(C4CC4)c3c2OC(F)F)CC1)Cc1ccccc1` [Compound 207, 7-{4-[2-(Benzyl-methyl-amino)-1-fluoro-ethylidene]-piperidin-1-yl}-1-cyclopropyl-8-difluoromethoxy-6-fluoro-4-oxo-1,4-dihydro-quinoline-3-carboxylic acid], the MIC was found to be 1 µg/mL (≈ 1.79 µM) under setting [1]; 4 µg/mL (≈ 7.15 µM) under setting [2]; 8 µg/mL (≈ 14.3 µM) under setting [3]; 8 µg/mL (≈ 14.3 µM) under setting [4]; 2 µg/mL (≈ 3.57 µM) under setting [5].

For `Cc1c(F)c(N2CCC(=C(Cl)CN)CC2)cc2c1c(=O)c(C(=O)O)cn2C1CC1` [Compound 263, 7-[4-(2-Amino-1-chloro-ethylidene)-piperidin-1-yl]-1-cyclopropyl-6-fluoro-5-methyl-4-oxo-1,4-dihydro-quinoline-3-carboxylic Acid], the MIC is, setting by setting: under setting [1], 0.03 µg/mL (≈ 0.0714 µM); under setting [2], 0.12 µg/mL (≈ 0.286 µM); under setting [3], 0.5 µg/mL (≈ 1.19 µM); under setting [4], 1 µg/mL (≈ 2.38 µM); under setting [5], 0.5 µg/mL (≈ 1.19 µM).

In the case of `COc1c(N2CCC/C(=C\CN)C2)c(F)cc2c(=O)c(C(=O)O)cn(C3CC3)c12` [Compound 390, (E)-7-[3-(2-Amino-ethylidene)-piperidin-1-yl]-1-cyclopropyl-6-fluoro-8-methoxy-4-oxo-1,4-dihydro-quinoline-3-carboxylic acid], the MIC was determined as 0.06 µg/mL (≈ 0.149 µM) under setting [1], 0.5 µg/mL (≈ 1.25 µM) under setting [2], 2 µg/mL (≈ 4.98 µM) under setting [4] and 4 µg/mL (≈ 9.96 µM) under setting [5].

For the compound `NCC(F)=C1CCN(c2cc3c(cc2F)c(=O)c(C(=O)O)cn3C2CC2)CC1` [Compound 208, 7-[4-(2-Amino-1-fluoro-ethylidene)-piperidin-1-yl]-1-cyclopropyl-6-fluoro-4-oxo-1,4-dihydro-quinoline-3-carboxylic acid], the MIC was 0.06 µg/mL (≈ 0.154 µM) (Organism A: Staphylococcus aureus OC4172); 2 µg/mL (≈ 5.14 µM) (Organism C: fluoroquinolone-resistant clinical isolate of Streptococcus pneumoniae (QRDR amino acid substitutions)); 0.25 µg/mL (≈ 0.642 µM) (Organism E: Streptococcus pneumoniae ATCC 49619); 0.25 µg/mL (≈ 0.642 µM) under setting [3]; 0.25 µg/mL (≈ 0.642 µM) under setting [5].

As to `NC/C(F)=C1\CCCN(c2nc3c(cc2F)c(=O)c(C(=O)O)cn3C2CC2)C1` [Compound 374, (Z)-7-[3-(2-Amino-1-fluoro-ethylidene)-piperidin-1-yl]-1-cyclopropyl-6-fluoro-4-oxo-1,4-dihydro-[1,8]naphthyridine-3-carboxylic acid], the MIC under setting [1] came out at 0.06 µg/mL (≈ 0.154 µM); the MIC under setting [2] was found to be 0.5 µg/mL (≈ 1.28 µM); the MIC under setting [3] was 2 µg/mL (≈ 5.12 µM); 16 µg/mL (≈ 41 µM) was the least that counted as inhibitory under setting [4] (MIC); the MIC under setting [5] was found to be 4 µg/mL (≈ 10.2 µM).

`Cc1c(F)c(N2CCC/C(=C(\F)CN)C2)cc2c1c(=O)c(C(=O)O)cn2C1CC1` [Compound 424, (E)-7-[3-(2-Amino-1-fluoro-ethylidene)-piperidin-1-yl]-1-cyclopropyl-6-fluoro-5-methyl-4-oxo-1,4-dihydro-quinoline-3-carboxylic acid]: the MIC was not above 0.015 µg/mL under setting [1]; not above 1 µg/mL under setting [2]; 0.06 µg/mL (≈ 0.149 µM) under setting [3]; 0.5 µg/mL (≈ 1.24 µM) under setting [4]; not above 1 µg/mL under setting [5].

In the case of `NC/C(Cl)=C1/CCCN(c2cc3c(cc2F)c(=O)c(C(=O)O)cn3C2CC2)CC1` [Compound 387, (E)-7-[4-(2-Amino-1-chloro-ethylidene)-azepan-1-yl]-1-cyclopropyl-6-fluoro-4-oxo-1,4-dihydro-quinoline-3-carboxylic acid], the MIC reads like this: under setting [1], 0.5 µg/mL (≈ 1.19 µM); under setting [2], 2 µg/mL (≈ 4.76 µM); under setting [3], more than 16 µg/mL; under setting [4], 16 µg/mL (≈ 38.1 µM); under setting [5], 16 µg/mL (≈ 38.1 µM).

For `CCNCC(Cl)=C1CCN(c2c(F)cc3c(=O)c(C(=O)O)cn(C4CC4)c3c2OC)CC1` [Compound 75, 7-[4-(1-Chloro-2-ethylamino-ethylidene)-piperidin-1-yl]-1-cyclopropyl-6-fluoro-8-methoxy-4-oxo-1,4-dihydro-quinoline-3-carboxylic acid], the MIC under setting [1] is 0.12 µg/mL (≈ 0.259 µM); the MIC under setting [2] turned out to be 0.25 µg/mL (≈ 0.539 µM); the MIC under setting [3] came to 1 µg/mL (≈ 2.16 µM); the MIC under setting [4] amounted to 1 µg/mL (≈ 2.16 µM); the MIC under setting [5] was 1 µg/mL (≈ 2.16 µM).

For `Cc1c(F)c(N2CCC/C(=C(/Cl)CN)C2)cc2c1c(=O)c(C(=O)O)cn2C1CC1` [Compound 452, (Z)-7-[3-(2-Amino-1-chloro-ethylidene)-piperidin-1-yl]-1-cyclopropyl-6-fluoro-5-methyl-4-oxo-1,4-dihydro-quinoline-3-carboxylic acid], the MIC under setting [1] is 0.5 µg/mL (≈ 1.19 µM), the MIC under setting [2] was found to be 4 µg/mL (≈ 9.53 µM), the MIC under setting [4] was 4 µg/mL (≈ 9.53 µM) and the MIC under setting [5] was more than 16 µg/mL.

As for `CC1(C)CN(c2nc3c(cc2F)c(=O)c(C(=O)O)cn3C2CC2)CCC1=C(Br)CN` [Compound 176, 7-[4-(2-Amino-1-bromo-ethylidene)-3,3-dimethyl-piperidin-1-yl]-1-cyclopropyl-6-fluoro-4-oxo-1,4-dihydro-[1,8]naphthyridine-3-carboxylic acid], the MIC came to 0.25 µg/mL (≈ 0.522 µM) under setting [1]; 0.12 µg/mL (≈ 0.25 µM) under setting [2]; 0.5 µg/mL (≈ 1.04 µM) under setting [3]; 1 µg/mL (≈ 2.09 µM) under setting [4]; 1 µg/mL (≈ 2.09 µM) under setting [5].

As for `COc1c(N2CCC/C(=C(/F)CN)C2)c(F)cc2c(=O)c(C(=O)O)cn([C@@H]3C[C@@H]3F)c12` [Compound 406, (Z)-7-[3-(2-Amino-1-fluoro-ethylidene)-piperidin-1-yl]-6-fluoro-(1R,2S)-1-(2-fluoro-cyclopropyl)-8-methoxy-4-oxo-1,4-dihydro-quinoline-3-carboxylic acid], the MIC by setting is: under setting [1], 0.06 µg/mL (≈ 0.137 µM); under setting [2], 0.5 µg/mL (≈ 1.14 µM); under setting [3], 8 µg/mL (≈ 18.3 µM); under setting [4], 8 µg/mL (≈ 18.3 µM); under setting [5], 2 µg/mL (≈ 4.57 µM).

Turning to `NC/C(Cl)=C1\CCCN(c2c(F)cc3c(=O)c(C(=O)O)cn(C4CC4)c3c2OC(F)F)C1` [Compound 447, (Z)-7-[3-(2-Amino-1-chloro-ethylidene)-piperidin-1-yl]-1-cyclopropyl-8-difluoromethoxy-6-fluoro-4-oxo-1,4-dihydro-quinoline-3-carboxylic acid], the MIC under setting [1] is 0.25 µg/mL (≈ 0.53 µM), the MIC under setting [2] stood at 1 µg/mL (≈ 2.12 µM), the MIC under setting [4] worked out at 16 µg/mL (≈ 33.9 µM) and the MIC under setting [5] is 1 µg/mL (≈ 2.12 µM).

In the case of `COc1c(N2CC(=C(Cl)CO)C2)c(F)cc2c(=O)c(C(=O)O)cn([C@@H]3C[C@@H]3F)c12` [Compound 363, 7-[3-(1-Chloro-2-hydroxy-ethylidene)-azetidin-1-yl]-6-fluoro-(1R,2S)-1-(2-fluoro-cyclopropyl)-8-methoxy-4-oxo-1,4-dihydro-quinoline-3-carboxylic Acid], the MIC was 0.03 µg/mL (≈ 0.0703 µM) under setting [1]; 0.5 µg/mL (≈ 1.17 µM) under setting [2]; 4 µg/mL (≈ 9.37 µM) under setting [3]; more than 16 µg/mL under setting [4]; 16 µg/mL (≈ 37.5 µM) under setting [5].
